From ChEMBL document CHEMBL1147087, “An antidepressant that extends lifespan in adult Caenorhabditis elegans” (Nature, 2007)

Columns and labels:
Type in all cases: functional
Caenorhabditis elegans [1] = experiment: Effect on life span of Caenorhabditis elegans at 100 uM
Caenorhabditis elegans [2] = experiment: Effect on life span of Caenorhabditis elegans at 50 uM
Caenorhabditis elegans [3] = experiment: Increase in life span of Caenorhabditis elegans
Caenorhabditis elegans [4] = experiment: Effect on life span of Caenorhabditis elegans at 200 uM
Caenorhabditis elegans [5] = experiment: Effect on life span of Caenorhabditis elegans daf16(mu86) mutant at 50 uM
Caenorhabditis elegans [6] = experiment: Effect on life span of Caenorhabditis elegans eat2(ad1116) mutant at 50 uM
Caenorhabditis elegans [7] = experiment: Effect on life span of Caenorhabditis elegans ser3(ok2007) mutant at 50 uM
Caenorhabditis elegans [8] = experiment: Effect on life span of Caenorhabditis elegans ser4(ok512) mutant at 50 uM
Caenorhabditis elegans [9] = experiment: Effect on life span of Caenorhabditis elegans ser7(tm1325) mutant at 50 uM
Caenorhabditis elegans [10] = experiment: (§1) Effect on life span of Caenorhabditis elegans N2 treated on day 5 at 50 uM
Caenorhabditis elegans [11] = experiment: Effect on life span of Caenorhabditis elegans N2 treated on day 1 at 50 uM
Caenorhabditis elegans [12] = experiment: Effect on life span of diet restricted Caenorhabditis elegans N2 at 50 uM
Caenorhabditis elegans [13] = experiment: Effect on life span of Caenorhabditis elegans at 10 uM
Caenorhabditis elegans [14] = experiment: Effect on life span of Caenorhabditis elegans N2 treated on day 5 at 10 uM
Caenorhabditis elegans [15] = experiment: Effect on life span of Caenorhabditis elegans daf16 mutant at 10 uM
Caenorhabditis elegans [16] = experiment: Effect on life span of Caenorhabditis elegans daf2 mutant at 10 uM
Caenorhabditis elegans [17] = experiment: Effect on life span of Caenorhabditis elegans eat2 mutant at 10 uM
Caenorhabditis elegans [18] = experiment: Effect on life span of Caenorhabditis elegans clk1 mutant at 10 uM
Caenorhabditis elegans [19] = experiment: Effect on life span of Caenorhabditis elegans N2 at 10 uM
Caenorhabditis elegans [20] = experiment: Effect on life span of Caenorhabditis elegans tph1 mutant at 10 uM
Caenorhabditis elegans [21] = experiment: Effect on life span of Caenorhabditis elegans mod5 mutant at 10 uM
Caenorhabditis elegans [22] = experiment: Effect on life span of Caenorhabditis elegans ser1 mutant at 10 uM
Caenorhabditis elegans [23] = experiment: Effect on life span of Caenorhabditis elegans ser2 mutant at 10 uM
Caenorhabditis elegans [24] = experiment: Effect on life span of Caenorhabditis elegans ser3 mutant at 10 uM
Caenorhabditis elegans [25] = experiment: Effect on life span of Caenorhabditis elegans ser3 mutant at 250 uM
Caenorhabditis elegans [26] = experiment: Effect on life span of Caenorhabditis elegans ser4 mutant at 10 uM
Caenorhabditis elegans [27] = experiment: Effect on life span of Caenorhabditis elegans ser7 mutant at 10 uM
Caenorhabditis elegans [28] = experiment: Effect on life span of Caenorhabditis elegans mod1 mutant at 10 uM
Caenorhabditis elegans [29] = experiment: as §1; remark: listed apart in the source
Caenorhabditis elegans [30] = experiment: Effect on life span of Caenorhabditis elegans clk1([…]) mutant at 50 uM
Caenorhabditis elegans [31] = experiment: Effect on life span of Caenorhabditis elegans daf2(e1370) mutant at 50 uM
Caenorhabditis elegans [32] = experiment: Effect on life span of Caenorhabditis elegans mod1(ok103) mutant at 50 uM
Caenorhabditis elegans [33] = experiment: Effect on life span of Caenorhabditis elegans mod5(n3314) mutant at 50 uM
Caenorhabditis elegans [34] = experiment: Effect on life span of Caenorhabditis elegans ser1(ok345) mutant at 50 uM
Caenorhabditis elegans [35] = experiment: Effect on life span of Caenorhabditis elegans ser2(pk1357) mutant at 50 uM
Caenorhabditis elegans [36] = experiment: Effect on life span of Caenorhabditis elegans tph(mg280) mutant at 50 uM
Caenorhabditis elegans [37] = experiment: Effect on life span of Caenorhabditis elegans N2 from L1 stage at 2 uM
Caenorhabditis elegans [38] = experiment: Effect on life span of Caenorhabditis elegans N2 from L1 stage at 10 uM
Caenorhabditis elegans [39] = experiment: Effect on life span of Caenorhabditis elegans N2 from L1 stage at 100 uM
Caenorhabditis elegans [40] = experiment: Effect on life span of Caenorhabditis elegans N2 from L1 stage at 200 uM
Caenorhabditis elegans [41] = experiment: Effect on life span of Caenorhabditis elegans N2 treated on day 1 at 2 uM
Caenorhabditis elegans [42] = experiment: Effect on life span of Caenorhabditis elegans N2 treated on day 1 at 10 uM
Caenorhabditis elegans [43] = experiment: Effect on life span of Caenorhabditis elegans N2 treated on day 1 at 100 uM
Caenorhabditis elegans [44] = experiment: Effect on life span of Caenorhabditis elegans N2 treated on day 1 at 200 uM
Caenorhabditis elegans [45] = experiment: Effect on life span of Caenorhabditis elegans daf16 mutant at 50 uM
Caenorhabditis elegans [46] = experiment: Effect on life span of Caenorhabditis elegans daf2 mutant at 50 uM
Caenorhabditis elegans [47] = experiment: Effect on life span of Caenorhabditis elegans eat2 mutant at 50 uM
Caenorhabditis elegans [48] = experiment: Effect on life span of Caenorhabditis elegans clk1 mutant at 50 uM
Caenorhabditis elegans [49] = experiment: Effect on life span of Caenorhabditis elegans N2 at 50 uM
Caenorhabditis elegans [50] = experiment: Effect on life span of Caenorhabditis elegans N2 at 2 uM
Caenorhabditis elegans [51] = experiment: Effect on life span of Caenorhabditis elegans N2 at 250 uM
Caenorhabditis elegans [52] = experiment: Effect on life span of Caenorhabditis elegans tph1 mutant at 50 uM
Caenorhabditis elegans [53] = experiment: Effect on life span of Caenorhabditis elegans tph1 mutant at 250 uM
Caenorhabditis elegans [54] = experiment: Effect on life span of Caenorhabditis elegans mod5 mutant at 50 uM
Caenorhabditis elegans [55] = experiment: Effect on life span of Caenorhabditis elegans ser1 mutant at 50 uM
Caenorhabditis elegans [56] = experiment: Effect on life span of Caenorhabditis elegans ser2 mutant at 50 uM
Caenorhabditis elegans [57] = experiment: Effect on life span of Caenorhabditis elegans ser3 mutant at 50 uM
Caenorhabditis elegans [58] = experiment: Effect on life span of Caenorhabditis elegans ser3 mutant at 2 uM
Caenorhabditis elegans [59] = experiment: Effect on life span of Caenorhabditis elegans ser4 mutant at 50 uM
Caenorhabditis elegans [60] = experiment: Effect on life span of Caenorhabditis elegans ser4 mutant at 2 uM
Caenorhabditis elegans [61] = experiment: Effect on life span of Caenorhabditis elegans ser4 mutant at 250 uM
Caenorhabditis elegans [62] = experiment: Effect on life span of Caenorhabditis elegans ser7 mutant at 50 uM
Caenorhabditis elegans [63] = experiment: Effect on life span of Caenorhabditis elegans mod1 mutant at 50 uM
Caenorhabditis elegans [64] = experiment: Effect on life span of Caenorhabditis elegans ser3(ad1774) mutant at 50 uM
Caenorhabditis elegans [65] = experiment: Effect on life span of Caenorhabditis elegans N2 from L1 stage at 50 uM
Caenorhabditis elegans [66] = experiment: Effect on life span of Caenorhabditis elegans at 250 uM
Caenorhabditis elegans [67] = experiment: Effect on life span of Caenorhabditis elegans at 1000 uM
Caenorhabditis elegans [68] = experiment: Effect on life span of Caenorhabditis elegans at 3000 uM

COc1ccccc1N1CCN(CCCCN2C(=O)CCC2=O)CC1
Activity (Caenorhabditis elegans [1]): -4%
Activity (Caenorhabditis elegans [2]): 6%

O=C1CC(c2cccc([N+](=O)[O-])c2)CC2=C1C(c1ccccc1)Nc1ccccc1N2 (centres undefined)
Activity (Caenorhabditis elegans [3]): 20%

CCCN(CCC)C1CCc2cccc(O)c2C1 (centres undefined) [8-OH-DPAT]
Activity (Caenorhabditis elegans [4]): -13%
Activity (Caenorhabditis elegans [1]): 8%
Activity (Caenorhabditis elegans [2]): 3%

Clc1cccc(N2CCNCC2)c1 [CHLOROPHENYLPIPERAZINE]
Activity (Caenorhabditis elegans [2]): -26%

CN1CCC(=C2c3ccccc3C=Cc3ccccc32)CC1 [CYPROHEPTADINE]
Activity (Caenorhabditis elegans [5]): 6%
Activity (Caenorhabditis elegans [6]): 4%
Activity (Caenorhabditis elegans [7]): -4%
Activity (Caenorhabditis elegans [8]): 16%
Activity (Caenorhabditis elegans [9]): 54%
Activity (Caenorhabditis elegans [10]): 7%
Activity (Caenorhabditis elegans [1]): 17%
Activity (Caenorhabditis elegans [2]): 19%
Activity (Caenorhabditis elegans [11]): 33%
Activity (Caenorhabditis elegans [12]): 9%

CNCCCN1c2ccccc2CCc2ccccc21 [DESIPRAMINE]
Activity (Caenorhabditis elegans [4]): 3%
Activity (Caenorhabditis elegans [2]): -2%
Activity (Caenorhabditis elegans [13]): -6%

c1cc2c(c(N3CCNCC3)c1)OCCO2 [ELTOPRAZINE]
Activity (Caenorhabditis elegans [1]): -8%
Activity (Caenorhabditis elegans [2]): -12%

CNCCC(Oc1ccc(C(F)(F)F)cc1)c1ccccc1 (centres undefined) [FLUOXETINE]
Activity (Caenorhabditis elegans [4]): -48%
Activity (Caenorhabditis elegans [1]): -11%
Activity (Caenorhabditis elegans [2]): -12%

CN(C)Cc1c[nH]c2ccccc12 [GRAMINE]
Activity (Caenorhabditis elegans [2]): 2%
Activity (Caenorhabditis elegans [13]): 3%

CN(C)CCCN1c2ccccc2CCc2ccccc21 [IMIPRAMINE]
Activity (Caenorhabditis elegans [4]): -2%
Activity (Caenorhabditis elegans [2]): -1%
Activity (Caenorhabditis elegans [13]): -3%

O=C1c2ccccc2S(=O)(=O)N1CCCCN1CCN(c2ncccn2)CC1 [IPSAPIRONE]
Activity (Caenorhabditis elegans [1]): 0%
Activity (Caenorhabditis elegans [2]): 3%

CSc1ccc2c(c1)C(N1CCN(C)CC1)Cc1ccccc1S2 (centres undefined) [METITEPINE]
Activity (Caenorhabditis elegans [14]): -1%
Activity (Caenorhabditis elegans [15]): 10%
Activity (Caenorhabditis elegans [16]): 21%
Activity (Caenorhabditis elegans [17]): -3%
Activity (Caenorhabditis elegans [18]): 10%
Activity (Caenorhabditis elegans [13]): 25%
Activity (Caenorhabditis elegans [19]): 25%
Activity (Caenorhabditis elegans [20]): -2%
Activity (Caenorhabditis elegans [21]): 8%
Activity (Caenorhabditis elegans [22]): 38%
Activity (Caenorhabditis elegans [23]): 17%
Activity (Caenorhabditis elegans [24]): -9%
Activity (Caenorhabditis elegans [25]): -1%
Activity (Caenorhabditis elegans [26]): 8%
Activity (Caenorhabditis elegans [27]): 40%
Activity (Caenorhabditis elegans [28]): 21%

CN1CCN2c3ccccc3Cc3ccccc3C2C1 (centres undefined) [MIANSERIN]
Activity (Caenorhabditis elegans [29]): 1%
Activity (Caenorhabditis elegans [30]): 3%
Activity (Caenorhabditis elegans [5]): 14%
Activity (Caenorhabditis elegans [31]): 11%
Activity (Caenorhabditis elegans [6]): 2%
Activity (Caenorhabditis elegans [32]): 25%
Activity (Caenorhabditis elegans [33]): 2%
Activity (Caenorhabditis elegans [34]): 38%
Activity (Caenorhabditis elegans [35]): 19%
Activity (Caenorhabditis elegans [7]): -2%
Activity (Caenorhabditis elegans [8]): 7%
Activity (Caenorhabditis elegans [9]): 60%
Activity (Caenorhabditis elegans [36]): 0%
Activity (Caenorhabditis elegans [37]): 8%
Activity (Caenorhabditis elegans [38]): 9%
Activity (Caenorhabditis elegans [39]): -4%
Activity (Caenorhabditis elegans [40]): 5%
Activity (Caenorhabditis elegans [41]): 13%
Activity (Caenorhabditis elegans [42]): 18%
Activity (Caenorhabditis elegans [43]): 13%
Activity (Caenorhabditis elegans [44]): -4%
Activity (Caenorhabditis elegans [45]): 12%
Activity (Caenorhabditis elegans [46]): 16%
Activity (Caenorhabditis elegans [47]): -4%
Activity (Caenorhabditis elegans [48]): 10%
Activity (Caenorhabditis elegans [10]): 6%
Activity (Caenorhabditis elegans [2]): 25%
Activity (Caenorhabditis elegans [49]): 48%
Activity (Caenorhabditis elegans [19]): 31%
Activity (Caenorhabditis elegans [50]): 19%
Activity (Caenorhabditis elegans [51]): -17%
Activity (Caenorhabditis elegans [52]): 10%
Activity (Caenorhabditis elegans [53]): -1%
Activity (Caenorhabditis elegans [54]): 14%
Activity (Caenorhabditis elegans [55]): 53%
Activity (Caenorhabditis elegans [56]): 19%
Activity (Caenorhabditis elegans [57]): -5%
Activity (Caenorhabditis elegans [24]): -2%
Activity (Caenorhabditis elegans [58]): -3%
Activity (Caenorhabditis elegans [25]): -1%
Activity (Caenorhabditis elegans [59]): 7%
Activity (Caenorhabditis elegans [60]): 6%
Activity (Caenorhabditis elegans [61]): -20%
Activity (Caenorhabditis elegans [62]): 50%
Activity (Caenorhabditis elegans [63]): 29%
Activity (Caenorhabditis elegans [64]): 3%
Activity (Caenorhabditis elegans [11]): 31%
Activity (Caenorhabditis elegans [12]): 4%
Activity (Caenorhabditis elegans [65]): 10%

CN1CCN2c3ncccc3Cc3ccccc3C2C1 (centres undefined) [MIRTAZAPINE]
Activity (Caenorhabditis elegans [1]): 5%
Activity (Caenorhabditis elegans [2]): 20%

COc1ccccc1N1CCN(CCCCN2C(=O)c3ccccc3C2=O)CC1 [NAN-190]
Activity (Caenorhabditis elegans [1]): 2%
Activity (Caenorhabditis elegans [2]): -11%

Fc1ccc([C@@H]2CCNC[C@H]2COc2ccc3c(c2)OCO3)cc1 [PAROXETINE]
Activity (Caenorhabditis elegans [2]): -42%
Activity (Caenorhabditis elegans [66]): -76%

N[C@@H](Cc1ccccc1)C(=O)O [PHENYLALANINE]
Activity (Caenorhabditis elegans [4]): -2%
Activity (Caenorhabditis elegans [2]): -1%

NCCc1c[nH]c2ccc(O)cc12 [SEROTONIN]
Activity (Caenorhabditis elegans [67]): -8%
Activity (Caenorhabditis elegans [68]): -6%

CN[C@H]1CC[C@@H](c2ccc(Cl)c(Cl)c2)c2ccccc21 [SERTRALINE]
Activity (Caenorhabditis elegans [2]): -76%
Activity (Caenorhabditis elegans [66]): -80%
